The values below come from patent publication US20100003228A1, “T-CELL VACCINE” (priority 2006, published 2010).

Test [1] has as its system T cell receptor variable beta chain usage (Vβ). The test is described as follows: TCR V beta analysis of peptide-stimulated T cell line by flow cytometry. Conditions: Day 9 to Day 16 in culture, FIG. 10. Type of test: cell-based, human. The method, then:
Enrichment of T cell subsets was evaluated by analyzing the T cell receptor variable beta chain usage (Vβ). The 24 different known beta chain variable (Vβ) region families were evaluated using specific fluorescent-labeled monoclonal antibodies and flow cytometry. If a particular subset of T cells is selectively expanded by stimulation with a peptide, an increase would be detected in the percentage of cells expressing one of the V beta families as that subset expands.
[…] A T cell line was produced by stimulating the patient's PBMCs with peptide mix MBPm10, which had produced an SI of 4.6 in the original EAA for this patient. […] This mix was used to stimulate PBMCs from this patient in culture.

In test [2] the test system is myelin reactive T cells in PBMCs. The experiment in a line: EAA with positivity by Variance Evaluation Method or CPM Variance Method (clinical trials). Type of test: cell-based, human. The following applies: clinical trial population, RR-MS or CIS subjects.

In the case of “PLPm27: mix of PLP 53 and PLP 54 (chain 1 VLPWNAFPGKVCGSNL; chain 2 NAFPGKVCGSNLLSIC)”, in test [1], the “TCR V beta focusing” value is “V beta chain 5-5 is expanding”. Further, in test [2], the “# of Subjects (frequency of identification)” value stood at 6 and the “% of Subjects (frequency of identification)” value amounted to 5.0%.
